Article PMC6930675, “Discovery and Characterisation of Dual Inhibitors of Tryptophan 2,3-Dioxygenase (TDO2) and Indoleamine 2,3-Dioxygenase 1 (IDO1) Using Virtual Screening” (Molecules, 2019)
“And” between values parts separate entries of the source, which are not always exact repeats. Identical values can stand only once.

Columns and labels:
TDO2 = tested on: TDO2; set-up: method as in PMID 27096472, PMID 28105265, PMID 26348881, PMID 22616902; conditions: cited from earlier work; for IC50: test library, read-out: IC50 (TDO2 active compounds of the test library)
IDO1 (SKOV3 cells) = biological target: T1, IDO1 (SKOV3 cells) (Homo sapiens, UniProt P14902); assay: Cell based kynurenine assay in SKOV3 ovarian line (IDO1 expressor); conditions: for IC50: SKOV3 (IDO1), 18 h, read-out: IC50, inhibition of kynurenine secretion
T1 construct: identify cell lines endogenously expressing only IDO1, only TDO2, and both enzymes simultaneously; endogenous in cells; host or cells: SKOV3 ovarian cancer cell line
Experimental: (§1) Breast cancer cell lines MCF7, MDA-MB-231, BT549, Hs578T; ovarian cell line SKOV3; glioblastoma cell line A172 and lung cancer cell line H460 were grown in α-MEMGibco, Grand Island, NY, USA; ThermoFisher catalogue number 12000022) containing 5% foetal calf serum (Moregate Biotech, Hamilton, New Zealand), insulin/transferrin/selenium supplement (Roche, Ref-11074547001), added according to the manufacturer’s instructions, as well as penicillin/streptomycin (100 U/mL and 100 μg/mL, respectively). The amount of kynurenine produced by the cells was measured as described previously. Briefly, a well of a 96-well plate received 3.7 × 10^4 cells which were subsequently cultured with the addition of 50 μM ([…] and SKOV3 cells) or 100 μM (A172 cells) of L-tryptophan (Sigma-Aldrich, St Louis, MO, USA) with or without test compounds at 37 °C, 5% CO2 for 18 h. The cell number seeded was optimised to produce levels of kynurenine <40% of initial tryptophan to avoid tryptophan starvation and to ensure steady-state IDO1/TDO2 kinetics. Next, the culture supernatants were transferred into a fresh 96-well plate, incubated with trichloroacetic acid (10% final concentration) for 20 min at 60 °C to release kynurenine from the cells and precipitate proteins. After spinning the plates for 20 min at 2500 g, the supernatants were mixed at a 1:1 ratio with 4-(dimethylamino)benzaldehyde (20 mg/mL in acetic acid; Sigma) and the absorbance was read at 480 nm on an EnSpire 2300 Multimode Plate Reader (Perkin-Elmer, Singapore, Singapore). The remaining cells in the 96-well plate received a well-established indicator of cellular metabolic activity WST-1 (Roche Diagnostics Cat No 05015944, Basel, Switzerland; 10% diluted in culture media). After 1 h of incubation at 37 °C, the absorbance was measured at 440 nm. WST-1 is reduced on the outer membrane of viable cells to a soluble formazan by reducing equivalents such as NAD(P)H. The absorbance measured at 440 nm indicates the number of metabolically active cells in the culture and represents a surrogate marker of cell viability.
(§2) All experiments were repeated independently at least twice in technical quadruplicates. Calculations and graph plotting were performed in Prism (v8, 2018; GraphPad software, San Diego, CA, USA) and R computing environment (v3.5.3, 2019, 64-bit, Vienna, Austria). IC50 of the compounds in cellular enzymatic activity compared to untreated control cells was determined by fitting data to an equation f(x) = A + B/(1 + (IC50/X)^HILL) in Prism; where A is the minimum and B is the maximum of the curve, HILL is the slope of the curve and X is the compound concentration.

[1] = tested on: IDO1/TDO2 (SKOV3 and BT549 cell lines); assay: Single-concentration test of virtual hits for inhibition of kynurenine secretion in SKOV3 and BT549; format: cell-based, human; conditions: 20 µM
Experimental: as §1, with “Next, the culture supernatants were transferred into a fresh 96-well plate, incubated with trichloroacetic acid (10% final concentration) for 20 min at 60 °C to release kynurenine from the cells and precipitate proteins.” left out, “The remaining cells in the 96-well plate received a well-established indicator of cellular metabolic activity WST-1 (Roche Diagnostics Cat No 05015944, Basel, Switzerland; 10% diluted in culture media).” left out
as §2, with “Calculations and graph plotting were performed in Prism (v8, 2018; GraphPad software, San Diego, CA, USA) and R computing environment (v3.5.3, 2019, 64-bit, Vienna, Austria).” left out

IDO1/TDO2 (BT549 cells) = assay: Cell based kynurenine assay in BT549 breast line (dual IDO1/TDO2 expressor); set-up: species or system human
Experimental: (§3) Breast cancer cell lines MCF7, MDA-MB-231, BT549, Hs578T; ovarian cell line SKOV3; glioblastoma cell line A172 and lung cancer cell line H460 were grown in α-MEMGibco, Grand Island, NY, USA; ThermoFisher catalogue number 12000022) containing 5% foetal calf serum (Moregate Biotech, Hamilton, New Zealand), insulin/transferrin/selenium supplement (Roche, Ref-11074547001), added according to the manufacturer’s instructions, as well as penicillin/streptomycin (100 U/mL and 100 μg/mL, respectively). The amount of kynurenine produced by the cells was measured as described previously. […] After spinning the plates for 20 min at 2500 g, the supernatants were mixed at a 1:1 ratio with 4-(dimethylamino)benzaldehyde (20 mg/mL in acetic acid; Sigma) and the absorbance was read at 480 nm on an EnSpire 2300 Multimode Plate Reader (Perkin-Elmer, Singapore, Singapore). […] After 1 h of incubation at 37 °C, the absorbance was measured at 440 nm. WST-1 is reduced on the outer membrane of viable cells to a soluble formazan by reducing equivalents such as NAD(P)H. The absorbance measured at 440 nm indicates the number of metabolically active cells in the culture and represents a surrogate marker of cell viability. […]

TDO2 (A172 cells) = biological target: T2, TDO2 (A172 cells) (Homo sapiens, UniProt P48775); assay: Cell based kynurenine assay in A172 glioblastoma line (TDO2 expressor); conditions: 18 h, read-out: IC50, inhibition of kynurenine secretion
T2 construct: identify cell lines endogenously expressing only IDO1, only TDO2, and both enzymes simultaneously; endogenous in cells; host or cells: A172 glioblastoma cell line
Experimental: as §3

[2] = tested on: BT549 and SKOV3 cell lines; assay: WST-1 assay of cellular metabolic activity / cell viability; format: cell-based, human; conditions: 20 µM; asterisks in Figure 6A
Experimental: Breast cancer cell lines MCF7, MDA-MB-231, BT549, Hs578T; ovarian cell line SKOV3; glioblastoma cell line A172 and lung cancer cell line H460 were grown in α-MEMGibco, Grand Island, NY, USA; ThermoFisher catalogue number 12000022) containing 5% foetal calf serum (Moregate Biotech, Hamilton, New Zealand), insulin/transferrin/selenium supplement (Roche, Ref-11074547001), added according to the manufacturer’s instructions, as well as penicillin/streptomycin (100 U/mL and 100 μg/mL, respectively). The amount of kynurenine produced by the cells was measured as described previously. […] After spinning the plates for 20 min at 2500 g, the supernatants were mixed at a 1:1 ratio with 4-(dimethylamino)benzaldehyde (20 mg/mL in acetic acid; Sigma) and the absorbance was read at 480 nm on an EnSpire 2300 Multimode Plate Reader (Perkin-Elmer, Singapore, Singapore). […] After 1 h of incubation at 37 °C, the absorbance was measured at 440 nm. WST-1 is reduced on the outer membrane of viable cells to a soluble formazan by reducing equivalents such as NAD(P)H. The absorbance measured at 440 nm indicates the number of metabolically active cells in the culture and represents a surrogate marker of cell viability.

T1 sequence (P14902 whole entry): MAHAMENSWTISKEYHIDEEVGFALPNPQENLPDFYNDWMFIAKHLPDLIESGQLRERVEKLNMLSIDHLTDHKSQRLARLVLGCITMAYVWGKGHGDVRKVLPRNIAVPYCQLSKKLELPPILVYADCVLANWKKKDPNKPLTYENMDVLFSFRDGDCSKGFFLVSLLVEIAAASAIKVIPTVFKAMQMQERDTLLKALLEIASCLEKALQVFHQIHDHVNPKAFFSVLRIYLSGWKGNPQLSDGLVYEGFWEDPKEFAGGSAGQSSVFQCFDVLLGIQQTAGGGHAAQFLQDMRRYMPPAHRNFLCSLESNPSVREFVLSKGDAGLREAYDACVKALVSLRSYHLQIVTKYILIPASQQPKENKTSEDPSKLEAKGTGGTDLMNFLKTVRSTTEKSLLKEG
T2 sequence (P48775 whole entry): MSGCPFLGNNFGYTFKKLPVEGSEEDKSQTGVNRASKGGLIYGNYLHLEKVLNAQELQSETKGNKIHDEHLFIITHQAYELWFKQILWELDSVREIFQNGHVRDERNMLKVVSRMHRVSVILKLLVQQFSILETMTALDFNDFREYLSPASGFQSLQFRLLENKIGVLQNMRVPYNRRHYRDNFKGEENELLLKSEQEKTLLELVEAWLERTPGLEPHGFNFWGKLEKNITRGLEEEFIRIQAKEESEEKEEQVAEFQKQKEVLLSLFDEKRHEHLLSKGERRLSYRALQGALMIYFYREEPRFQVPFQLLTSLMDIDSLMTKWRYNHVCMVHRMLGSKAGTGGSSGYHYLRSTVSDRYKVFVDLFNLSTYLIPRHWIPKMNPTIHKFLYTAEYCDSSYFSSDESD

SMILES: CC1c2cc(-c3c[nH]c4cc(F)ccc34)ccc2S(=O)(=O)N1CC(N)=O (centres unmarked) [1a]
- IC50 (TDO2): 0.026 µM

SMILES: C[C@H]1NS(=O)(=O)c2ccc(-c3c[nH]c4cc(F)ccc34)cc21 [1b]
- IC50 (TDO2): 0.027 µM

SMILES: O=S1(=O)NC(CO)c2cc(-c3c[nH]c4cc(F)ccc34)ccc21 (centres unmarked) [1d]
- IC50 (TDO2): 0.043 µM

SMILES: O=C1c2ccccc2C(=O)c2c1nnn2Cc1cccc(C(=O)N2CCOCC2)c1 [1e]
- IC50 (TDO2): 0.048 µM

SMILES: Nc1cccc(-c2c[nH]nn2)c1 [2a]
- Activity class in the TDO2 test library (TDO2): inactive

SMILES: Brc1cccc(-c2c[nH]nn2)c1 [2b]
- Activity class in the TDO2 test library (TDO2): inactive

SMILES: FC(F)(F)c1cc(-c2c[nH]nn2)ccn1 [2c]
- Activity class in the TDO2 test library (TDO2): inactive

SMILES: O=C1Nc2ccccc2/C1=N\Nc1nc2ccccc2s1 [2d]
- Activity class in the TDO2 test library (TDO2): inactive

SMILES: O=C(CC1(O)C(=O)Nc2c(Cl)cc(Cl)cc21)c1ccc(Cl)cc1 (centres unmarked) [2e]
- Activity class in the TDO2 test library (TDO2): inactive

SMILES: Nc1nonc1/C(=N/O)Nc1ccc(F)c(Cl)c1 [5L]
- Inhibition of kynurenine production, in words (IDO1 (SKOV3 cells); SKOV3, at 1 µM): completely inhibited

SMILES: Fc1ccc2c(/C=C\c3cccnc3)c[nH]c2c1 [680C91]
- Effect on kynurenine production, in words (IDO1 (SKOV3 cells); SKOV3): barely affected

SMILES: COc1ccccc1C(=O)CC(=O)c1ccc(C)cc1O [TD12]
- Inhibition of kynurenine secretion [1]: 50% ± 20

SMILES: Cc1ccc(C(=O)CC(=O)c2ccccc2OC(C)C)c(O)c1 [TD18]
- IC50 (IDO1 (SKOV3 cells)): 28.9 µM
- Inhibition of kynurenine secretion [1]: 50% ± 20

SMILES: CC1=C(CC(=O)c2sccc2Br)C(=O)c2ccccc2C1=O [TD34]
- IC50 (IDO1 (SKOV3 cells)): 47.3 µM and ~40 µM
- IC50 (IDO1/TDO2 (BT549 cells); BT549 (IDO1/TDO2), 18 h, read-out: IC50, inhibition of kynurenine secretion): 3.42 µM
- Fold higher potency in BT549 than in A172 and SKOV3 (IDO1/TDO2 (BT549 cells); BT549 versus A172 / SKOV3): more than 10 fold
- IC50 (TDO2 (A172 cells)): 37.7 µM and ~40 µM
- Inhibition of kynurenine production, in words [1]: inhibited kynurenine production
- Toxicity to the BT549 and SKOV3 cell lines [2]: absence of cell toxicity
